One substance from publication PMC10256202, “Allosteric regulation of Senecavirus A 3C^pro proteolytic activity by an endogenous phospholipid” (PLOS Pathogens, 2023) can be followed below.

This assay addresses T1, SVA 3C^pro (Seneca Valley virus USA/SSV-001, UniProt Q155Z9).
T1 construct: full-length mature 3C cut from the genome polyprotein; codon-optimized, E. coli BL21(DE3); N-terminal His6-SUMO tag removed by ULP1 (lipid strips: His-tagged protein)
In words: CL-specific ELISA of lipid co-purified with the protein. Conditions: endogenous E. coli lipid extracted by heating; lipid-binding (allosteric) site. Background: In an ELISA, binding on a coated surface is turned into a signal by an enzyme label.

T1 sequence (Q155Z9 1509-1719): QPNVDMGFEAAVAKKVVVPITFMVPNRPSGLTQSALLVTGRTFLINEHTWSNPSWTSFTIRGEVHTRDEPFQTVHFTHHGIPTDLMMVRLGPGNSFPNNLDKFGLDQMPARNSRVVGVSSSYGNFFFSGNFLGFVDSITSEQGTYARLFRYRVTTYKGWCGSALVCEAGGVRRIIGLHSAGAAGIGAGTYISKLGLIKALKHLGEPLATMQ

For cardiolipin [CL], the lipid content is ~ 24.2 μg/L.
